Laboratory results published in ChEMBL document CHEMBL4842357, “Discovery of Novel Apigenin-Piperazine Hybrids as Potent and Selective Poly (ADP-Ribose) Polymerase-1 (PARP-1) Inhibitors for the Treatment of Cancer” (J Med Chem, 2021).

Key:
[1] = biological target: T1, Poly [ADP-ribose] polymerase 2 (Homo sapiens, UniProt Q9UGN5); assay: Inhibition of PARP-2 (unknown origin)
[2] = biological target: T2, Poly [ADP-ribose] polymerase 1 (Homo sapiens, UniProt P09874); assay: Inhibition of PARP-1 (unknown origin)
[3] = biological target: T1, Poly [ADP-ribose] polymerase 2; assay: Inhibition of recombinant human full-length PARP-2 using biotinylated substrate
[4] = biological target: T2, Poly [ADP-ribose] polymerase 1; assay: Inhibition of recombinant human full-length PARP-1 using biotinylated substrate
[5] = species: Homo sapiens; assay: Selectivity index, ratio of IC50 for inhibition of recombinant human full-length PARP-2 to IC50 for inhibition of recombinant human full-length PARP-1
[6] = species: Homo sapiens; assay: Selectivity index, ratio of IC50 for PARP-2 (unknown origin) to IC50 for PARP-1 (unknown origin)
[7] = Drug distribution in spleen of mouse xenografted with human SK-OV-3 cells at 100 mg/kg, po after 9 hrs by LC-MS analysis; assay type: ADME, organism-based; conditions: in vivo
[8] = Subacute toxicity in ICR mouse assessed as weight abnormalities at 1000 mg/kg, po administered for 14 days; assay type: organism-based; conditions: in vivo, 336 h, time 14 day
[9] = Tmax in Sprague-Dawley rat at 50 mg/kg, po; assay type: ADME, organism-based; conditions: in vivo
[10] = Toxicity in BALB/c nude mouse xenografted with human A549 cells assessed as change in body weight at 25 to 50 mg/kg, po administered once daily measured for 28 days in presence of CBP; assay type: organism-based; conditions: in vivo, 672 h, dose 25-50 mg/kg, time 28 day
[11] = Tmax in Sprague-Dawley rat at 5 mg/kg, iv; assay type: ADME, organism-based; conditions: in vivo
[12] = Volume of distribution at steady state in Sprague-Dawley rat at 5 mg/kg, iv; assay type: ADME, organism-based; conditions: in vivo, read-out: Vdss
[13] = Acute toxicity in ICR mouse assessed as abnormalities at 200 to 1000 mg/kg, po administered for 14 days; assay type: organism-based; conditions: in vivo, 336 h, dose 200-1000 mg/kg, time 14 day
[14] = Acute toxicity in ICR mouse assessed as mortality at 200 to 1000 mg/kg, po administered for 14 days; assay type: organism-based; conditions: in vivo, 336 h, dose 200-1000 mg/kg, time 14 day
[15] = Half life in Sprague-Dawley rat at 5 mg/kg, iv; assay type: ADME, organism-based; conditions: in vivo
[16] = AUC(0 to infinity) in Sprague-Dawley rat at 5 mg/kg, iv; assay type: ADME, organism-based; design: route intravenous, time infinity, dose 5 mg/kg; conditions: in vivo
[17] = tested on: SK-OV-3; assay: Antitumor activity against human SK-OV-3 cells xenografted in BALB/c nude mouse assessed as relative tumor volume at 50 mg/kg, po administered once daily for 12 days; assay type: functional; conditions: time 12 day
[18] = Half life in Sprague-Dawley rat at 50 mg/kg, po; assay type: ADME, organism-based; conditions: in vivo
[19] = Toxicity in ICR mouse assessed as effect on main visceral organs at 1000 mg/kg, ig administered for 14 days by H and E analysis; assay type: organism-based; conditions: in vivo, po, 336 h, time 14 day
[20] = Drug distribution in tumor of mouse xenografted with human SK-OV-3 cells at 100 mg/kg, po after 1 hr by LC-MS analysis; assay type: ADME, organism-based, Neoplasm; conditions: in vivo
[21] = AUC(0 to infinity) in Sprague-Dawley rat at 50 mg/kg, po; assay type: ADME, organism-based; design: time infinity, route oral, dose 50 mg/kg; conditions: in vivo
[22] = Oral bioavailability in Sprague-Dawley rat at 50 mg/kg; assay type: ADME, organism-based; conditions: in vivo
[23] = Drug distribution in liver of mouse xenografted with human SK-OV-3 cells at 100 mg/kg, po after 9 hrs by LC-MS analysis; assay type: ADME, organism-based; conditions: in vivo
[24] = Toxicity in BALB/c mouse xenografted with human SK-OV-3 cells assessed as change in body weight at 25 to 50 mg/kg, po administered once daily measured for 28 days; assay type: organism-based; conditions: in vivo, 672 h, dose 25-50 mg/kg, time 28 day
[25] = Subacute toxicity in ICR mouse assessed as death at 1000 mg/kg, po administered for 14 days; assay type: organism-based; conditions: in vivo, 336 h, time 14 day
[26] = MRT in Sprague-Dawley rat at 5 mg/kg, iv; assay type: ADME, organism-based; conditions: in vivo
[27] = Total plasma clearance in Sprague-Dawley rat at 5 mg/kg, iv; assay type: ADME, organism-based
[28] = Cmax in Sprague-Dawley rat at 50 mg/kg, po; assay type: ADME, organism-based; design: route oral, dose 50 mg/kg; conditions: in vivo
[29] = Cmax in Sprague-Dawley rat at 5 mg/kg, iv; assay type: ADME, organism-based; design: route intravenous, dose 5 mg/kg; conditions: in vivo
[30] = Subacute toxicity in ICR mouse assessed as clinical abnormalities at 1000 mg/kg, po administered for 14 days; assay type: organism-based; conditions: in vivo, 336 h, time 14 day
[31] = MRT in Sprague-Dawley rat at 50 mg/kg, po; assay type: ADME, organism-based; conditions: in vivo

T2 sequence (P09874 whole entry): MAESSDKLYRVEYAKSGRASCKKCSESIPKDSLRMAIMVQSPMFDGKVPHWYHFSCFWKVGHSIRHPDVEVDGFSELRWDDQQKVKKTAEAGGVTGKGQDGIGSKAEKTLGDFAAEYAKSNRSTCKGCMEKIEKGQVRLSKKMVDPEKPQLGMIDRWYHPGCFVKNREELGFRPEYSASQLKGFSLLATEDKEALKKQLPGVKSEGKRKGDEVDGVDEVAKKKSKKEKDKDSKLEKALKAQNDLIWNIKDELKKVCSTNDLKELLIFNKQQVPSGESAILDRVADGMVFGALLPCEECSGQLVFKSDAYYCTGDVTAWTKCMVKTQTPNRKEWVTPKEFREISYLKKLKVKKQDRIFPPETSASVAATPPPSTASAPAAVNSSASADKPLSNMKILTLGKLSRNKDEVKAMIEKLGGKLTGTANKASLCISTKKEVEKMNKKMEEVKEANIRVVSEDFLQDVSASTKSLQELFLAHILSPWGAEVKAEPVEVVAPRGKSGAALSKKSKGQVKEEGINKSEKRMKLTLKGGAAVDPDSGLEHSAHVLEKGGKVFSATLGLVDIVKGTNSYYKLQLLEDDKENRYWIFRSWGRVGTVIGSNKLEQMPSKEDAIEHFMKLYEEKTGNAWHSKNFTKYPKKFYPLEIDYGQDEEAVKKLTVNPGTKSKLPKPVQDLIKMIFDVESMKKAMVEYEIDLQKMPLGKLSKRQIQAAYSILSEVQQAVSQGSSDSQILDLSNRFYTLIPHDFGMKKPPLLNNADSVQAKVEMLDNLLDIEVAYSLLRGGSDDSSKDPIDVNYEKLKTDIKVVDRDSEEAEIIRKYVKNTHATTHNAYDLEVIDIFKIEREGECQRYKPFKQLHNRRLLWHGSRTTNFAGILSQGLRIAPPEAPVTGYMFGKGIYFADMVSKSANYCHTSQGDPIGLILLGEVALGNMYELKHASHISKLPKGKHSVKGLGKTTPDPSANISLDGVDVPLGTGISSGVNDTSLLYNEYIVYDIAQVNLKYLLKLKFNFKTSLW
T1 sequence (Q9UGN5 whole entry): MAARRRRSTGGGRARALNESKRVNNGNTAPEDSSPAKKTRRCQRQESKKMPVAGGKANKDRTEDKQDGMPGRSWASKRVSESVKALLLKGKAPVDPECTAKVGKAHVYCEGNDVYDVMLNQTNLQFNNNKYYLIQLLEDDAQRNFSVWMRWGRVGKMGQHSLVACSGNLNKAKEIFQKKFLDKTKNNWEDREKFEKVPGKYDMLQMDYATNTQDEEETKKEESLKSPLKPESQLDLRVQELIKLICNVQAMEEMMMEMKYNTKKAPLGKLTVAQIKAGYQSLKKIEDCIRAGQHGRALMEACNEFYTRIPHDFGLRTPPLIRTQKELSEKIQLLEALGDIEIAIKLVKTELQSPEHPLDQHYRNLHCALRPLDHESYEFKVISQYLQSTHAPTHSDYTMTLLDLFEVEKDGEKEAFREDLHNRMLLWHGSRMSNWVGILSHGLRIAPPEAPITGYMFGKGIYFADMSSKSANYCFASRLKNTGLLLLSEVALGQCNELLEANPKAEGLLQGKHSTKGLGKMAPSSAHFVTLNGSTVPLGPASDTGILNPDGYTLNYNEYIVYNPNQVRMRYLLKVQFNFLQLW

Work on `O=c1cc(-c2ccc(O)c(-c3c(O)cc(O)c4c(=O)cc(-c5ccc(O)cc5)oc34)c2)oc2cc(O)cc(O)c12` [AMENTOFLAVONE] yielded an IC50 [1] of 10.3 µM, an IC50 [2] of 0.0002 µM and an IC50 [3] of 10.3 µM. It also gave an IC50 [4] of 0.187 µM, a Ratio IC50 [5] of 55.2 and a Ratio IC50 [6] of 52.
With `Cl.Cl.O=c1cc(-c2ccc(O)cc2)oc2c(CN3CCN(Cc4cccs4)CC3)c(O)cc(O)c12` the Drug uptake [7] was “Not Active”, the Activity [8] was “Non-Toxic” and the Tmax [9] was 1.5 h. For the same compound, the Activity [10] was “Non-Toxic”, the Tmax [11] was 1.8 min and the Vd [12] was 11.4 L/kg. For the same compound, the Activity [13] was “Non-Toxic”, the Activity [14] was “Non-Toxic” and the half-life [15] was 3.19 h. For the same compound, the AUC(0-inf) [16] was 1370 ng·h/mL, the Activity [17] was 0.74 and the half-life [18] was 10.7 h. The Activity [19] was “Non-Toxic”, the Drug uptake [20] was “Active” and the AUC(0-inf) [21] was 3630 ng·h/mL. The bioavailability [22] was 26.5%, the Drug uptake [23] was “Active” and the Activity [24] was “Non-Toxic”. The Activity [25] was “Non-Toxic”, the MRT [26] was 3.14 h and the clearance [27] was 60.5 mL/min/kg. For the same compound, the Cmax [28] was 470 ng/mL, the Cmax [29] was 2880 ng/mL and the Activity [30] was “Non-Toxic”. For the same compound, the MRT [31] was 13 h.
